The text below walks through data of ChEMBL document CHEMBL4145472, “Novel donepezil-like N-benzylpyridinium salt derivatives as AChE inhibitors and their corresponding dihydropyridine "bio-oxidizable" prodrugs: Synthesis, biological evaluation and structure-activity relationship” (Eur J Med Chem, 2018).

Series [1] in a line: in vitro. As to conditions: PAMPA, pH 7.4.
Series [2] deals with Acetylcholinesterase (Homo sapiens, UniProt P22303). The experiment in a line: Inhibition of human erythrocyte AChE using acetylthiocholine iodide as substrate preincubated for 5 mins followed by substrate addition measured every minute for 10 mins by Ellman's method.
The nature of series [3]: Half life in 2% riboflavine solution in PBS at 25 uM by HPLC-UV analysis. As to conditions: 2% riboflavine solution in PBS. It counts as physicochemical.
In series [4] the target is Cholinesterase (Equus caballus, UniProt P81908).
Cholinesterase, sequence (P81908 whole entry): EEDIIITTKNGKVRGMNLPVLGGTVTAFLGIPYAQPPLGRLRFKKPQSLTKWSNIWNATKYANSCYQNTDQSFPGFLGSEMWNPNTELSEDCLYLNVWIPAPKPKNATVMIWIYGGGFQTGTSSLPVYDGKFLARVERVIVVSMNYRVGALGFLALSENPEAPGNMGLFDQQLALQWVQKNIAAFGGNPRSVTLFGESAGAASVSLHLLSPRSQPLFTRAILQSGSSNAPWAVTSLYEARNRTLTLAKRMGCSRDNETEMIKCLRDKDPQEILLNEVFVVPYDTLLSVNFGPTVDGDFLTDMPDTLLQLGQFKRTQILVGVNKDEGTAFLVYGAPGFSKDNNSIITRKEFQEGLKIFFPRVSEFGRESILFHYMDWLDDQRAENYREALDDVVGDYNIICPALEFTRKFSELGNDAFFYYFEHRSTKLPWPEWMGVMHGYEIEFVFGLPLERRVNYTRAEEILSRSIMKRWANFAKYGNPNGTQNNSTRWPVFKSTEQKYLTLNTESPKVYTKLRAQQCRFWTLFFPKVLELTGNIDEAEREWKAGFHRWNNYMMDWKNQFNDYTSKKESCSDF
Description: Inhibition of equine serum BChE using butyrylthiocholine iodide as substrate preincubated for 5 mins followed by substrate addition measured every minute for 10 mins by Ellman's method

Acetylcholinesterase, sequence (P22303 whole entry): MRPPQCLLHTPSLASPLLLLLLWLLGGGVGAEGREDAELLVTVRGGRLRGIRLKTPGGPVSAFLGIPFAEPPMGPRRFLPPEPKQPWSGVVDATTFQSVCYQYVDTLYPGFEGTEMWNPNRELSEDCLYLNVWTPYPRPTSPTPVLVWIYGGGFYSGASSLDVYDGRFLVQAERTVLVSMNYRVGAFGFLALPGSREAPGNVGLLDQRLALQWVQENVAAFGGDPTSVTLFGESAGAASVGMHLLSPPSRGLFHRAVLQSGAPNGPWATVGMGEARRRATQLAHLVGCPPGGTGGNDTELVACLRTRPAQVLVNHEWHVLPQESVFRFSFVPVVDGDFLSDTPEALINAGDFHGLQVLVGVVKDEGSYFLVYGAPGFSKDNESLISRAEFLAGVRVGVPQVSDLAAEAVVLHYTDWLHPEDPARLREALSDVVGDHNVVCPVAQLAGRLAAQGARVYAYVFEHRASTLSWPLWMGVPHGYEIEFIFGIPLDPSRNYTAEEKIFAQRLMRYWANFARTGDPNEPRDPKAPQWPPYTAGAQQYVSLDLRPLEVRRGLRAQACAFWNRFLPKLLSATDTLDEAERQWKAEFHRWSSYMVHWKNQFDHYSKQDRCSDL

The molecule `Cn1c(=O)c2[nH]cnc2n(C)c1=O.O` [THEOPHYLLINE] registered a Papp at 250 µM in series [1] of 0.4 to 0.66 ×10⁻⁶ cm/s.
`COc1cc2c(cc1OC)C(=O)C(CC1C=CN(Cc3cccc(Cl)c3)C=C1C(N)=O)C2` (stereo in doubt; 23h-A): the figures for the IC50 in series [2] and in series [4] were 5.34 µM and 14.3 µM, respectively. Moreover, the half-life at 25 µM in series [3] amounted to 24.6 min.
